# Source: US7183383B2, “Uses of collagen IV” (The University of Arkansas for Medical Sciences, priority 2002, dated 2007)
# How the values were obtained:
# Type in all cases: cell-based, rabbit
# [1] = tested on: renal proximal tubular cells; assay: Active Na^+ transport (ouabain-sensitive QO2); settings: for decrease in active Na^+ transport: day 1 after DCVC injury, in presence of the agent; for active Na+ transport in uninjured RPTC: days 1 or 6
# Experimental: Confluent monolayers of renal proximal tubular cells (day 6 after seeding) were exposed to 200 μM S-(1,2-dichlorovinyl)-L-cysteine (dissolved in water) for 1.75 hours followed by toxicant removal and addition of fresh culture media. This method produces approximately 50% cell death and loss 24 hours after the exposure. In some experiments, exogenous collagen IV (50 μg/ml), collagen I (50 μg/ml), or function-stimulating antibodies to collagen-binding integrin subunits α2 or β1 (5 μg/ml) was added daily to the culture media of S-(1,2-dichlorovinyl)-L-cysteine-injured renal proximal tubular cells cultured in the absence of pharmacological concentrations of L-ascorbic acid-2-phosphate. Function-stimulating antibodies to collagen-binding integrin α1 are not commercially available at this time. On days 1 and 6 following S-(1,2-dichlorovinyl)-L-cysteine exposure, active Na^+ transport or Na^+/K^+-ATPase activity, and collagen-binding integrin expression and/or localization in the remaining sublethally injured renal proximal tubular cells was determined as described below.
# Renal proximal tubular cells were gently detached from culture dishes with a rubber policeman and transferred to a 37° C. oxygen consumption (QO2) chamber. QO2 in renal proximal tubular cells was measured polarographically in the absence (basal QO2) or presence of ouabain (100 μM) (ouabain-insensitive QO2) using a Clark-type electrode as described previously (Nowak and Schnellmann, 1995). Active Na^+ transport (ouabain-sensitive QO2) was calculated by subtracting ouabain-insensitive QO2 from basal QO2. Protein concentrations were determined using the bicinchoninic acid microassay according to the manufacturer's instructions (Pierce, Rockford, Ill.).
# [2] = tested on: collagen-binding integrin subunits α1, α2, and β1; assay: Subcellular localization of CBIs by confocal microscopy; settings: for CBIs on the apical membrane of injured RPTC: by day 6 after DCVC; for CBIs on the apical membrane of injured RPTC / basal localization of CBI subunits α1, α2, and β1 in injured RPTC: pharmacological AscP or exogenous collagen IV
# Experimental: Collagen-binding integrin localization was determined using confocal microscopy of renal proximal tubular cell monolayers stained with monoclonal antibodies to integrin subunits α1, α2, and β1. Renal proximal tubular cell monolayers were washed 3 times with PBS and fixed with 10% buffered formalin (4% formaldehyde) for 20 minutes at room temperature. After 3 washes with PBS, monolayers were permeabilized in PTB buffer (PBS+0.3% Triton X-100+0.1% BSA) for 10 minutes at room temperature. Monolayers were washed 3 times with 0.1% BSA in PBS and incubated with 8% BSA in PBS for 30 minutes at room temperature. BSA (1%) in PBS containing 5 μg/ml of specific integrin antibodies or non-specific IgG was added to renal proximal tubular cell monolayers and incubated overnight a t 4° C. with moderate shaking. Following 3 washes with PTB buffer, monolayers were incubated for 2 hours in the dark at room temperature with 1% BSA in PBS containing a 1:100 dilution of a FITC-conjugated goat anti-mouse IgG. Monolayers were washed 3 times with PTB, and glass coverslips were applied after the addition of 2–3 drops of mounting media. Confocal microscopy was performed using a Zeiss confocal laser scanning microscope (Model 410, Carl Zeiss, Inc., Thornwood, N.Y.). Basal and apical membrane locations were determined visually in the Z-plane using light field microscopy. Two to three photomicrographs per monolayer at the basal and apical membranes were then scanned with an omnichrome laser filtered at 488 nm to detect FITC.
# [3] = tested on: collagen-binding integrin subunits α1, α2, and β1; assay: Expression of collagen-binding integrins by flow cytometry; settings: for expression of CBI subunits α1, α2, or β1 in sublethally injured RPTC: DCVC-injured RPTC; for expression of CBI subunits α1, α2, or β1 in sublethally injured RPTC / collagen-binding integrin α1, α2, and β1 expression in uninjured RPTC: AscP 500 μM or collagen IV 50 μg/ml
# Experimental: CBI expression was measured by flow cytometry of renal proximal tubular cells immunostained with monoclonal antibodies to integrin subunits α1, α2, and β1. Renal proximal tubular cell monolayers were washed 3 times with ice-cold PBS, gently scraped from culture dishes into cell culture media containing 5% BSA (BSA/media), and transferred to microcentrifuge tubes. Renal proximal tubular cells were dissociated by pipeting, incubated on ice with moderate shaking for 20 minutes, centrifuged, and resuspended in 1% BSA/media containing 2 μg/ml of a specific anti-integrin antibody or non-specific IgG on ice with moderate shaking for 1 hour. After 3 washes with 1% BSA/media, renal proximal tubular cells were incubated for 30 minutes in the dark with a goat-anti mouse FITC-conjugated IgG diluted 1:100 in 1% BSA/media, followed by 3 washes with ice-cold PBS. Membrane expression of collagen-binding integrins was determined immediately by flow cytometry using a FACSCalibur four-color cell sorter/analyzer (Beckton Dickinson, San Jose, Calif.) with a blue argon laser for detection of FITC. Specific binding was calculated as total fluorescence minus that in IgG controls.
# [4] = tested on: renal proximal tubular cells; assay: Cell density (monolayer protein content) in DCVC-injured RPTC
# Experimental: Rabbit renal proximal tubules were isolated using the iron oxide perfusion method and grown in 35-mm tissue culture dishes or 48-well cell culture clusters under improved conditions as previously described (35, 36). The cell culture medium was a 1:1 mixture of DMEM/Ham's F-12 (without D-glucose, phenol red, or sodium pyruvate) supplemented with 15 mM HEPES buffer, 2.5 mM L-glutamine, 1 μM pyridoxine HCl, 15 mM sodium bicarbonate, and 6 mM lactate. Hydrocortisone (50 nM), selenium (5 ng/ml), human transferrin (5 μg/ml), bovine insulin (10 nM), and L-ascorbic acid-2-phosphate (50 μM or 500 μM) were added to fresh culture medium immediately prior to daily media change. L-Ascorbic acid-2-phosphate (AscP) was used due to the fact that L-ascorbic acid is unstable in culture media. AscP is stable in culture media for ≧7 days at 37° C. and, after intracellular dephosphorylation, has the same effect on cultured cells as L-ascorbic acid (13).
# Confluent monolayers of renal proximal tubular cells (day 6 after seeding) were exposed to 200 μM S-(1,2-dichlorovinyl)-L-cysteine (dissolved in water) for 1.75 hours followed by toxicant removal and addition of fresh culture media. This method produces approximately 50% cell death and loss 24 hours after the exposure. On days 1, 4, and 6 following S-(1,2-dichlorovinyl)-L-cysteine exposure, the ability of the remaining renal proximal tubular cells to regenerate and repair physiological function was monitored as described below. In some experiments, immediately after S-(1,2-dichlorovinyl)-L-cysteine exposure and after daily media change through day 6 after injury, collagen I (0, 5, 15, or 50 μg/ml), collagen IV (0, 5, 15, or 50 μg/ml), laminin (50 μg/ml), or cellular fibronectin (50 μg/ml) was added to the culture media of uninjured and S-(1,2-dichlorovinyl)-L-cysteine-injured renal proximal tubular cells grown in physiological concentrations of AscP. Exogenous collagens I and IV used in this study were triple helical and contained only α1 and α2 chains in conformations similar to those found in the renal basement membrane (3, 25). Laminin was a mixture of biologically active laminin chains found in most epithelial tissues (8, 50) and cellular fibronectin was composed of functional dimers (51).
# Measurement of monolayer protein content over time was used to estimate cell density. On days 1, 4, and 6 after sublethal S-(1,2-dichlorovinyl)-L-cysteine injury, renal proximal tubular cell monolayers were washed with PBS and solubilized in Triton buffer (0.05% Triton X-100, 100 mM Tris-Base, 150 mM NaCl, pH 7.5). Samples were sonicated and protein concentrations determined using the method of Lowry (26) or the bicinchoninic acid microassay according to the manufacturer's instructions (Pierce, Rockford, Ill.).
# [5] = day 6, AscP 500 μM or collagen IV 50 μg/ml
compound,measurement,setting,value
"O=C1O[C@H]([C@@H](O)CO)C(O)=C1OP(=O)(O)O [L-ascorbic acid-2-phosphate, L-Ascorbic acid-2-phosphate]",decrease in active Na^+ transport,[1],approximately 80%
same,active Na^+ transport in DCVC-injured RPTC,[1]; [5],increase in active Na^+ transport
same,active Na+ transport in uninjured RPTC,[1],no effect
same,CBIs on the apical membrane of injured RPTC,[2],complete disappearance
same,"basal localization of CBI subunits α1, α2, and β1 in injured RPTC",[2]; day 6 after DCVC,return to control levels
same,"expression of CBI subunits α1, α2, or β1 in sublethally injured RPTC",[3],did not affect
same,"collagen-binding integrin α1, α2, and β1 expression in uninjured RPTC",[3],did not affect
same,monolayer protein content,"[4]; 4 days after DCVC, 50 μM or 500 μM AscP",remained at day 1 levels
same,monolayer protein content greater than that of DCVC-treated RPTC grown in 50 μM AscP,"[4]; 6 days after DCVC, 500 μM AscP",34%
same,cell death and loss (decrease in monolayer protein content),"[4]; day 1 after DCVC, RPTC cultured in 500 μM AscP",55%
same,"monolayer protein content, untreated RPTC, 50 μM vs 500 μM","[4]; uninjured RPTC, any time point",no significant differences
"N[C@@H](CSC(Cl)=CCl)C(=O)O [S-(1,2-dichlorovinyl)-L-cysteine]",active Na^+ transport,[1]; day 1 following DCVC injury,marked inhibition
same,active Na^+ transport,[1]; day 6 after DCVC injury,marked inhibition
same,"apical membrane distribution of CBI subunits α1, α2, and β1",[2]; day 1 after DCVC injury,partially redistributed to the apical membrane
same,"CBI α1, α2, and β1 staining at the basal membrane",[2]; day 1 following DCVC,decreased compared to controls
same,apical membrane distribution of CBIs,[2]; day 6 after DCVC injury,continued to exhibit CBI is distributed to the apical membrane
same,"basal localization of CBI subunits α1, α2, and β1","[2]; day 6 after DCVC, absence of pharmacological AscP or collagen IV",still decreased compared to sub-confluent controls
same,"expression of CBI subunits α1, α2, and β1 compared to controls",[3]; day 1 after DCVC,unchanged
same,expression of CBI subunits α1 and β1 compared to controls,[3]; day 6 after DCVC,unchanged
same,cell death and loss,"[4]; 200 μM for 1.75 hours, 24 hours after the exposure",approximately 50%
same,decrease in monolayer protein content compared to control,"[4]; day 1 after DCVC (200 μM), RPTC cultured in 50 μM AscP",56%
"collagen IV: Human placenta collagen IV (Sigma); triple helical, containing only α1 and α2 chains",decrease in active Na^+ transport,[1],approximately 80%
same,active Na^+ transport in DCVC-injured RPTC,[1]; [5],increase in active Na^+ transport
same,active Na^+ transport in DCVC-injured RPTC,"[1]; day 6 after injury, 5, 15, 50 μg/ml",concentration-dependent improvement
same,active Na+ transport in uninjured RPTC,[1],no effect
same,CBIs on the apical membrane of injured RPTC,[2],complete disappearance
same,"basal localization of CBI subunits α1, α2, and β1 in injured RPTC",[2]; day 6 after DCVC,return to control levels
same,"expression of CBI subunits α1, α2, or β1 in sublethally injured RPTC",[3],did not affect
same,"collagen-binding integrin α1, α2, and β1 expression in uninjured RPTC",[3],did not affect
same,decrease in monolayer cell density,"[4]; day 1 after DCVC injury, in presence of exogenous protein",approximately 50%
same,monolayer protein content in injured RPTC,"[4]; day 1 or day 6 after DCVC, 50 μg/ml",no change
same,cell density as percent of that of uninjured RPTC,"[4]; day 6 after DCVC injury, in presence of exogenous protein",approximately 50%
same,monolayer cell density in untreated RPTC,"[4]; uninjured RPTC, days 1 or 6, exogenous protein",no effect
